Experimental data: US7915295B2, “Non-nucleotide reverse transcriptase inhibitors” (priority 2004, dated 2011)

How the values were obtained:
[1] = biological target: T1, HIV-1 reverse transcriptase L100I+K103N mutant (Human immunodeficiency virus type 1 group M subtype B, UniProt P03366, K702N/L699I); experiment: HIV-1 reverse transcriptase SPA (scintillation proximity) assay with mutant RT; type: biochemical; conditions: K103N double escape mutant
T1 construct: made in house; host or cells: E. coli BL21 (DE3)
Experimental: Convenient reverse transcriptase assays use reverse transcriptase bearing key drug escape mutations prepared broadly as described in Unge et al Eur. J. Biochem. 269, 1670-1677 (2002).
For example a K103N mutant is prepared using this methodology and the primers
The L100I/K103 N mutant is prepared by mutation of L100 in the K103N enzyme:
Mutations are done in the HIVRT DH10 clone cDNA cloned into the pET11d expression vector. The mutations are generated by amplification of the mutated DNA with the help of the enzyme Pfu. Cloning was then performed in E. coli TOP10 cells and expression of mutated enzyme was performed in E. coli BL21 (DE3) cells after induction with IPTG.
The HIV-1 reverse transcriptase assay utilized a SPA (scintillation proximity assay) system relying on fluomicrospheres coated with the receptor molecule streptavidine (Flashplates, PerkinElmer Life Science) which is capable of binding radiolabelled ligands in the reaction solution. In the assay, a biotinylated primer (5′-GTC ATA GCT GTT TCC TG-3′) is pre-annealed with a DNA heterogeneous template (synthesized by GENSE) giving a sequence of 5′-CG UCUGGCAUUGCGAGCGGAUAA CM UUU CAC ACA GGA MC AGC UAU GAC-3′ in an RNase free environment. HIV-1 reverse transcriptase (such as L100I+K103N) catalyzed RNA-dependent DNA activity was measured in the presence of 50 mM Tris-HCl pH=8.0, 80 mM KCl, 10 mM MgCl2, 10 mM Dithiothreitol, 5 mg/ml BSA and 0.05% Nonidet P40 where the incorporation of tritium-labeled dGTP (Amersham, 35 Ci/mmol) and 11 uM of dNTP (dATP, dCTP and dTTP) was monitored at room temperature. The dGTP concentration was used at a Km value of 0.25 uM, 10 nM of RNA template was used and mutant RT (such as L100I+K103N) was used at 180 ng/ml in 100 ul reaction volume for 120 min reaction.
Compounds of the invention were assayed for HIV activity against the problematic L100I, K103N mutant in an invitro assay as outlined below. For reference, the closest prior art compound, cis-1-(4,7-difluoro-1,1a,2,7b-tetrahydro-cyclopropa[c]chromen-1-yl)-3-(5-phenoxy-pyridin-2-yl)-urea, example 20 of WO 02/070516 as depicted above, was assayed in the same system.

wild type HIV (HIVIIIB) = conditions: read-out: ED50 (the source's name); cited from earlier work

## O=C(Nc1ccc(Oc2ccccc2)cn1)N[C@@H]1[C@@H]2COc3c(F)ccc(F)c3[C@@H]21 (relative stereo) [Prior art, cis-1-(4,7-difluoro-1,1a,2,7b-tetrahydro-cyclopropa[c]chromen-1-yl)-3-(5-phenoxy-pyridin-2-yl)-urea, reference compound]
[1]
  IC50: 600 nM
Wild type HIV (HIVIIIB)
  EC50: 7 nM

## NC(=O)c1ccc(Oc2ccc(NC(=O)N[C@@H]3[C@@H]4COc5c(F)ccc(F)c5[C@@H]43)nc2)cc1 [Example 9, 4-({6-[({[(1S,1aR,7bR)-4,7-difluoro-1,1a,2,7b-tetrahydrocyclopropa[c]chromen-1-yl]amino}carbonyl)amino]-3-pyridinyl}oxy)benzamide]
[1]
  IC50: 28 nM

## NNC(=O)c1ccc(Oc2ccc(NC(=O)N[C@@H]3[C@H]4COc5c(F)ccc(F)c5[C@H]43)nc2)cc1 [Example 11, N-[(1S,1aS,7bS)-4,7-difluoro-1,1a,2,7b-tetrahydrocyclopropa[c]chromen-1-yl]-N′-{5-[4-(hydrazinocarbonyl)phenoxy]-2-pyridinyl}urea]
[1]
  IC50: 10 nM

## CS(=O)(=O)Nc1ccc(Oc2ccc(NC(=O)N[C@@H]3[C@@H]4COc5c(F)ccc(F)c5[C@@H]43)nc2)cc1 [Example 3, N-[(1S,1aR,7bR)-4,7-difluoro-1,1a,2,7b-tetrahydrocyclopropa[c]chromen-1-yl]-N′-[5-(4-(N-methylsulfonamido)phenoxy)-2-pyridinyl]urea]
[1]
  IC50: 60 nM

## CNC(=O)c1ccc(Oc2ccc(NC(=O)N[C@@H]3[C@@H]4COc5c(F)ccc(F)c5[C@@H]43)nc2)cn1 [Example 8, 5-({6-[({[(1S,1aR,7bR)-4,7-difluoro-1,1a,2,7b-tetrahydrocyclopropa[c]chromen-1-yl]amino}carbonyl)amino]-3-pyridinyl}oxy)-N-methyl-2-pyridinecarboxamide]
[1]
  IC50: 70 nM

## CS(=O)(=O)c1ccc(Oc2ccc(NC(=O)N[C@@H]3[C@@H]4COc5c(F)ccc(F)c5[C@@H]43)nc2)cc1 [Example 5, N-[(1S,1aR,7bR)-4,7-difluoro-1,1a,2,7b-tetrahydrocyclopropa[c]chromen-1-yl]-N′-[5-(4-(methylsulfon)phenoxy)-2-pyridinyl]urea]
[1]
  IC50: 40 nM

## CNC(=O)c1ccc(Oc2ccc(NC(=O)N[C@@H]3[C@@H]4COc5c(F)ccc(F)c5[C@@H]43)nc2)cc1 [Example 2, N-[(1S,1 aR,7bR)-4,7-difluoro-1,1a,2,7b-tetrahydrocyclopropa[c]chromen-1-yl]-N′-[5-(4-(N-methylcarboxyamido)phenoxy)-2-pyridinyl]urea]
[1]
  IC50: 26 nM

## O=C(Nc1ccc(Oc2ccc(C(=O)NC3CC3)cc2)cn1)N[C@@H]1[C@H]2COc3c(F)ccc(F)c3[C@H]21 [Example 12, 4-({6-[({[(1S,1aS,7bS)-4,7-difluoro-1,1a,2,7b-tetrahydrocyclopropa[c]chromen-1-yl]amino}carbonyl)amino]-3-pyridinyl}oxy)-N-cyclopropylbenzamide]
[1]
  IC50: 27 nM

## CC(=O)Nc1ccc(Oc2ccc(NC(=O)N[C@@H]3[C@H]4COc5c(F)ccc(F)c5[C@H]43)nc2)cc1 [Example 13, N-[4-({6-[({[(1S,1aS,7bS)-4,7-difluoro-1,1a,2,7b-tetrahydrocyclopropa[c]chromen-1-yl]amino}carbonyl)amino]-3-pyridinyl}oxy)phenyl]acetamide]
[1]
  IC50: 40 nM

## O=C(Nc1ccc(Oc2ccc(-n3cncn3)cc2)cn1)N[C@@H]1[C@@H]2COc3c(F)ccc(F)c3[C@@H]21 [Example 14, N-[(1S,1aR,7bR)-4,7-difluoro-1,1a,2,7b-tetrahydrocyclopropa[c]chromen-1-yl]-N′-{5-[4-(1H-1,2,4-triazol-1-yl)phenoxy]pyridin-2-yl}urea]
[1]
  IC50: 60 nM

## NS(=O)(=O)c1ccc(Oc2ccc(NC(=O)N[C@@H]3[C@@H]4COc5c(F)ccc(F)c5[C@@H]43)nc2)cc1 [Example 1, N-[(1S,1aR,7bR)-4,7-difluoro-1,1a,2,7b-tetrahydrocyclopropa[c]chromen-1-yl]-N′-[5-(4-(sulfonamido)phenoxy)-2-pyridinyl]urea]
[1]
  IC50: 29 nM

## NC(=O)c1ccc(Oc2ccc(NC(=O)N[C@@H]3[C@@H]4COc5c(F)ccc(F)c5[C@@H]43)nc2)cn1 [Example 10, 5-({6-[({[(1S,1aR,7bR)-4,7-difluoro-1,1a,2,7b-tetrahydrocyclopropa[c]chromen-1-yl]amino}carbonyl)amino]-3-pyridinyl}oxy)-2-pyridinecarboxamide]
[1]
  IC50: 80 nM

## Nc1ccc(Oc2ccc(NC(=O)N[C@@H]3[C@@H]4COc5c(F)ccc(F)c5[C@@H]43)nc2)cc1 [Example 4, N-[(1S,1aR,7bR)-4,7-difluoro-1,1a,2,7b-tetrahydrocyclopropa[c]chromen-1-yl]-N′-[5-(4-aminophenoxy)-2-pyridinyl]urea]
[1]
  IC50: 70 nM
